Results as given in the supplement of paper PMC10307832.

Legend:
Test in all cases: relative viability (nuclei count vs DMSO), 5 days (fraction); higher = more cells survive
[1] = compound: COc1cc2/c(=N/c3ccc(Br)cc3F)nc[nH]c2cc1OCC1CCN(C)CC1 [Vandetanib] + CC(=O)Nc1cccc(-n2c(=O)n(C3CC3)c(=O)c3c(Nc4ccc(I)cc4F)n(C)c(=O)c(C)c32)c1 [Trametinib] (partner 0.02 µM)
Procedure, shortened: (§1)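 Relative viability was taken as the ratio of nuclei in treated wells to nuclei in vehicle wells. Lung cancer cell lines in 1536-well plates received compounds by pin tool one day after seeding, either one drug alone or a fixed anchor-drug dose plus five library-drug doses (not always all listed) in √10 steps. Nuclei were counted on 4× images after 5 days of treatment, and values are medians of duplicate plates.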

[2] = compound: COc1cc(N2CCC(N3CCN(C)CC3)CC2)ccc1Nc1ncc(Cl)c(Nc2ccccc2S(=O)(=O)C(C)C)n1 [NVP-TAE684] + O=C(CCCCCCC(=O)Nc1ccccc1)NO [Vorinostat] (partner 1 µM)
Procedure, shortened: as §1

[3] = compound: C#Cc1cccc(Nc2ncnc3cc(OC)c(OCCCCCCC(=O)NO)cc23)c1 [CUDC-101] + COc1cccc2cc(-c3nc([C@H]4CC[C@H](C(=O)O)CC4)n4ncnc(N)c34)[nH]c12 [OSI-027] (partner 0.5 µM)
Procedure, shortened: as §1

[4] = compound: COc1cc2/c(=N/c3ccc(Br)cc3F)nc[nH]c2cc1OCC1CCN(C)CC1 [Vandetanib] + CCNC(=O)c1noc(-c2cc(C(C)C)c(O)cc2O)c1-c1ccc(CN2CCOCC2)cc1 [Luminespib] (partner 0.01 µM)
Procedure, shortened: as §1

Row | Cell Line | relative viability ([1]; first compound 0.02 µM) | relative viability ([1]; first compound 0.06325 µM) | relative viability ([1]; first compound 0.2 µM) | relative viability ([1]; first compound 0.6325 µM) | relative viability ([1]; first compound 2 µM) | relative viability ([2]; first compound 0.2 µM) | relative viability ([2]; first compound 0.6325 µM) | relative viability ([2]; first compound 2 µM) | relative viability ([3]; first compound 0.01 µM) | relative viability ([3]; first compound 0.03162 µM) | relative viability ([3]; first compound 0.1 µM) | relative viability ([3]; first compound 0.3162 µM) | relative viability ([3]; first compound 1 µM) | relative viability ([4]; first compound 0.02 µM) | relative viability ([4]; first compound 0.06325 µM) | relative viability ([4]; first compound 0.2 µM) | relative viability ([4]; first compound 0.6325 µM) | relative viability ([4]; first compound 2 µM)
1 | EMC-BAC-2 | 1.01 | 0.844 | 0.872 | 0.902 | 0.822 | 0.46 | 0.338 | 0.393 | 0.405 | 0.371 | 0.401 | 0.315 | 0.263 | 1.15 | 1.11 | 0.216 | 1.27 | 1.07
2 | NCI-H1437 | 0.592 | 0.466 | 0.557 | 0.432 | 0.517 | 0.832 | 0.899 | 0.426 | 0.857 | 0.876 | 0.886 | 0.952 | 0.662 | 1.12 | 1.09 | 0.255 | 1.21 | 1.06
3 | NCI-H1944 | 0.456 | 0.427 | 0.425 | 0.402 | 0.369 | 0.637 | 0.475 | 0.486 | 0.436 | 0.388 | 0.357 | 0.36 | 0.253 | 0.811 | 0.743 | 0.745 | 0.676 | 0.651
4 | NCI-H838 | 0.528 | 0.463 | 0.539 | 0.484 | 0.533 | 0.76 | 0.692 | 0.334 | 0.411 | 0.354 | 0.431 | 0.523 | 0.391 | 0.354 | 0.353 | 0.145 | 0.333 | 0.278
5 | HCC-827 | 0.568 | 0.457 | 0.501 | 0.266 | 0.16 | 0.754 | 0.762 | 0.793 | 0.813 | 0.46 | 0.177 | 0.144 | 0.136 | 0.897 | 0.589 | 0.57 | 0.183 | 0.147
6 | NCI-H2342 | 0.823 | 0.826 | 0.869 | 0.851 | 0.809 | 0.848 | 0.776 | 0.678 | 0.579 | 0.607 | 0.59 | 0.673 | 0.725 | 0.757 | 0.71 | 0.716 | 0.754 | 0.651
7 | LOU-NH91 | 0.775 | 0.731 | 0.725 | 0.716 | 0.673 | 0.817 | 0.8 | 0.628 | 0.753 | 0.633 | 0.523 | 0.514 | 0.443 | 0.33 | 0.306 | 0.294 | 0.369 | 0.32
8 | NCI-H3122 | 0.208 | 0.186 | 0.113 | 0.259 | 0.204 | 0.273 | 0.229 | 0.103 | 0.909 | 1.07 | 1.03 | 1.14 | 0.927 | 0.0842 | 0.111 | 0.0787 | 0.0959 | 0.0934
9 | NCI-H1563 | – | – | – | – | – | – | – | – | 0.732 | 0.751 | 0.783 | 0.728 | 0.675 | 0.552 | 0.53 | 0.515 | 0.518 | 0.473
10 | NCI-H1734 | 0.639 | 0.694 | 0.667 | 0.673 | 0.709 | 0.846 | – | 0.631 | 0.641 | 0.577 | 0.638 | 0.608 | 0.38 | 0.205 | 0.204 | 0.135 | 0.187 | 0.229
11 | EPLC-272H | 0.303 | 0.242 | 0.289 | 0.293 | 0.255 | 0.644 | 0.283 | 0.2 | 0.266 | 0.317 | 0.238 | 0.244 | 0.187 | 0.265 | – | 0.272 | 0.756 | 0.276
12 | RERF-LC-KJ | 0.808 | 0.933 | 0.528 | 0.831 | 0.688 | 0.589 | 0.644 | 0.48 | 0.517 | 0.612 | 0.674 | 0.585 | 0.401 | 1.1 | 1.21 | 1.29 | 1.14 | 1.12
13 | NCI-H1648 | 0.426 | 0.461 | 0.512 | 0.541 | 0.506 | 0.27 | 0.541 | 0.181 | 0.265 | – | 0.243 | 0.266 | 0.254 | – | – | – | – | –
14 | NCI-H1623 | – | – | – | – | – | – | – | – | 0.452 | 0.441 | 0.33 | 0.329 | 0.239 | 0.504 | 0.577 | 0.581 | 0.521 | 0.436
15 | HCC-78 | 0.73 | 0.814 | 0.684 | 0.809 | 0.525 | 0.316 | 0.411 | 0.23 | 0.291 | 0.352 | 0.362 | 0.335 | 0.218 | – | – | – | – | –
16 | IA-LM | – | – | – | – | – | 0.66 | 0.897 | 0.7 | – | – | – | – | – | – | – | – | – | –
17 | HCC-366 | 0.265 | 0.339 | 0.343 | 0.362 | 0.269 | 0.365 | 0.311 | 0.239 | 0.914 | 0.768 | 1.01 | 1.15 | 0.815 | – | – | – | – | –
18 | NCI-H1792 | 0.407 | 0.413 | 0.463 | 0.502 | 0.354 | – | – | – | 0.777 | 0.649 | 0.731 | 0.715 | 0.629 | 0.492 | 0.496 | 0.355 | 0.461 | 0.413
19 | ABC-1 | – | – | – | – | – | – | 1.01 | 0.527 | 0.601 | 0.461 | 0.454 | 0.373 | 0.142 | 0.673 | 0.616 | 0.401 | 1.2 | 0.594
